“And” between values parts separate entries of the source, which are not always exact repeats. Equal values may be shown once. Read-outs that look alike come from different tables or passages of the source.
What was measured:
[1] = assay type: in vivo, human
[2] = system: human cell-line model of busulfan-resistant acute myelogenous leukemia; details: cited from earlier work; for inhibitory concentration: busulfan-resistant AML cell line
[3] = cited from earlier work
[4] = 16 patients, 40 mg/m^2/day; cited from earlier work
[5] = between WBC of 0.3 × 10^3 /μL and 259 × 10^3 /μL; cited from earlier work

In the case of `Nc1nc(Cl)nc2c1ncn2[C@@H]1O[C@H](CO)[C@@H](O)[C@@H]1F` [clo-fara, clofarabine], the Additive error ([1]; bootstrap mean value) is reported as 0.36 ng/mL, the “Proportional residual unexplained variability” value ([1]; bootstrap mean value) is reported as 32.7% and the “Volume of the peripheral compartment (Vp)” value ([1]; bootstrap mean value) is reported as 47.3 L/15kg. The “between-subject variability for volume of central compartment” value ([1]; final model) was 40%, the Additive error ([1]; final model parameter estimate) was 0.36 ng/mL and the “Proportional residual unexplained variability” value ([1]; final model parameter estimate) was 33% and 33.2%. For the same molecule, the “Volume of the peripheral compartment (Vp)” value ([1]; final model parameter estimate) was 47 L/15kg and 47.4 L/15kg, the AUC ([1]; human, in vivo) was 3300 ng·h/mL and the “Inter-compartmental CL” value ([1]; human, in vivo) was 164 mL/min/kg. For the same molecule, the “Maturation half-time (Thalf) of age effect on CL” value ([1]; human, in vivo) was 0.41 years, the “Typical value for clo-fara CL” value ([1]; human, in vivo) was 23.4 L/h/15kg and the “between-subject variability for clo-fara CL” value ([1]; human, in vivo) was 26%. The clearance ([1]; human, in vivo) was 390 mL/min, the “intercompartmental CL” value ([1]; human, in vivo) was 9.8 L/h/15kg and the AUC at 4 daily doses ([1]; human, in vivo, 10 mg/m2) was 1200 ng·h/mL. It also gave an AUC(0-t) ([1]; human, in vivo, 10 mg/m2, AUC0–24, median (range)) of 300 ng·h/mL, an AUC at 4 daily doses ([1]; human, in vivo, 30 mg/m2) of 3300 ng·h/mL and an AUC(0-t) ([1]; human, in vivo, 30 mg/m2, AUC0–24, median (range)) of 820 ng·h/mL. The “AUC0–24, median (range)” value ([1]; human, in vivo, 40 mg/m2) was 1.04 (0.87 – 4.0) mg•hr/L, the AUC at 5 daily doses ([1]; human, in vivo, 40 mg/m2) was 5200 ng·h/mL and the AUC(0-t) ([1]; human, in vivo, 40 mg/m2, AUC0–24, median (range)) was 780 ng·h/mL. For the same molecule, the AUC(0-t) ([1]; human, in vivo, 40 mg/m2, AUC0–24, outlier value of one subject) was 4000 ng·h/mL, the AUC(0-t) ([1]; human, in vivo, 40 mg/m2, AUC0–24 of the other subjects) was no more than 1170 ng·h/mL and the inhibitory concentration [2] was 0.06 µM. For the same molecule, the “difference in cytotoxic activity, clofarabine vs fludarabine” value ([2]; from inhibitory concentrations) was roughly 50 fold, the “dose excreted in the urine unchanged” value ([3]; 24-hour urine collections in pediatric studies) was 49–60% and the “hepatic and non-hepatic metabolic conversion” value [3] was 0.2%. The “variability observed in clo-fara PK parameters (CL, AUC, volume of distribution)” value [4] was 2–3 fold and the “increase of predicted volume of the central compartment with WBC” value [5] was 2.38 fold.
For `Nc1nc(F)nc2c1ncn2[C@@H]1O[C@H](CO)[C@@H](O)[C@@H]1O` [fludarabine], the inhibitory concentration [2] is given as 3.0 µM.

Reference: PMC10291704 (Biology of blood and marrow transplantation : journal of …, 2019)
